The text below walks through data of patent EP0003892A1, “Beta-lactam compounds, processes for their production, compositions containing them and intermediates of use in their preparation” (GLAXO GROUP LIMITED, priority 1978, dated 1979).

Holding throughout (assay): Determination of Minimum Inhibitory Concentrations (MIC), agar dilution
What all share (type): cell-based
A general note: In agar dilution, organisms are placed on agar that contains the substance at set levels.

One assay deals with E. coli 851E. The following applies: Escherichia coli. As to the method: (§1) 1. Determination of Minimum Inhibitory Concentrations (MIC)
(§2) Serial two-fold dilutions of freshly prepared test solutions were made into Oxoid No. 1 Nutrient agar with or without added enrichment and poured into petri diches. Plates were inoculated with a multipoint inoculator with inoculum containing approximately […] of the organisms shown in the following Tables, all of which organisms are clinical isolates. The MIC, quoted in the Tables as µg/ml, was read after 18 hours incubation at 37°C as the lowest concentration which inhibited growth.

Another assay relates to Staph.aureus 853E. The following applies: Staphylococcus aureus. The procedure:
as §1, §2

A further assay relates to Pr. mirabilis 431E. Particulars: Proteus mirabilis. The procedure:
as §1, §2

For the next assay, the system named is H. influenzae 1184E. The following applies: Haemophilus influenzae. The procedure: as §1, §2
For the next assay, the system named is E. cloacae 1321E. Particulars: Enterobacter cloacae. As to the method:
as §1, §2

For another assay, the system named is Micrococcus Sp 1810E. Particulars: SP1810E. The procedure: as §1, §2
The next assay concerns E. cloacae 1051E. Particulars: Enterobacter cloacae. The procedure:
as §1, §2

Another assay concerns K. aerogenes 1522E. The following applies: Klebsiella aerogenes. As to the method:
as §1, §2

Values after ≈ are worked out from the molar mass of the structure shown. Read-outs that look alike come from different tables or passages of the source.

Turning to `CC(=O)SCCC1=C(C(=O)[O-])N2C(=O)CC2S1.[K+]` (racemic) [Example 29, Potassium (5RS)-2-(2-acetylthioethyl)pen-2-em-3-carboxylate], the MIC was 1 µg/mL in the assay on E. coli 851E (851E, 18 h); under 0.1 µg/mL with Staph.aureus 853E (853E, 18 h); 1 µg/mL in the assay with Pr. mirabilis 431E (431E, 18 h); 8 µg/mL with H. influenzae 1184E (1184E, 18 h); 1 µg/mL with E. cloacae 1321E (1321E, 18 h); under 0.1 µg/mL with Micrococcus Sp 1810E (Micrococcus, 18 h). Besides, the MIC stood at 16 µg/mL in the assay with E. cloacae 1051E (1051E, 18 h) and 2 µg/mL against K. aerogenes 1522E (1522E, 18 h).

As to `CCOC(=S)SCCC1=C(C(=O)[O-])N2C(=O)CC2S1.[K+]` (racemic) [Example 36, Potassium (5RS)-2-(2-ethoxythiocarbonylthioethyl)pen-2-em-3-carboxylate], the MIC was 8 µg/mL in the assay with E. coli 851E (851E, 18 h); under 0.1 µg/mL against Staph.aureus 853E (853E, 18 h); 8 µg/mL with Pr. mirabilis 431E (431E, 18 h); 4 µg/mL in the assay on H. influenzae 1184E (1184E, 18 h); 16 µg/mL against E. cloacae 1321E (1321E, 18 h); under 0.1 µg/mL against Micrococcus Sp 1810E (Micrococcus, 18 h). Also, the MIC worked out at 62 µg/mL against E. cloacae 1051E (1051E, 18 h) and 16 µg/mL in the assay on K. aerogenes 1522E (1522E, 18 h).

In the case of `CN(C)C(=S)SCCC1=C(C(=O)O)N2C(=O)CC2S1` (racemic) [Example 38, (5RS)-2-(2-N,N-Dimethylthiocarbamoylthioethyl)pen-2-em-3-carboxylic acid], the MIC was 31 µg/mL (≈ 97.3 µM) in the assay with E. coli 851E (E. coli 851E, clinical isolate, Oxoid No. 1 Nutrient agar, read after 18 hours incubation at 37°C, read-out: MIC); under 0.1 µg/mL in the assay with Staph.aureus 853E (Staph.aureus 853E, clinical isolate, Oxoid No. 1 Nutrient agar, read after 18 hours incubation at 37°C, read-out: MIC); 16 µg/mL (≈ 50.2 µM) with Pr. mirabilis 431E (Pr. mirabilis 431E, clinical isolate, Oxoid No. 1 Nutrient agar, read after 18 hours incubation at 37°C, read-out: MIC); 2 µg/mL (≈ 6.28 µM) in the assay on H. influenzae 1184E (H. influenzae 1184E, clinical isolate, Oxoid No. 1 Nutrient agar, read after 18 hours incubation at 37°C, read-out: MIC); 31 µg/mL (≈ 97.3 µM) in the assay on E. cloacae 1321E (E. cloacae 1321E, clinical isolate, Oxoid No. 1 Nutrient agar, read after 18 hours incubation at 37°C, read-out: MIC); under 0.1 µg/mL with Micrococcus Sp 1810E (Micrococcus Sp 1810E, clinical isolate, Oxoid No. 1 Nutrient agar, read after 18 hours incubation at 37°C, read-out: MIC). The MIC with E. cloacae 1051E (E. cloacae 1051E, clinical isolate, Oxoid No. 1 Nutrient agar, read after 18 hours incubation at 37°C, read-out: MIC) is over 250 µg/mL; in the assay with K. aerogenes 1522E (K. aerogenes 1522E, clinical isolate, Oxoid No. 1 Nutrient agar, read after 18 hours incubation at 37°C, read-out: MIC), 31 µg/mL (≈ 97.3 µM).
